Measurements published in PMC10591299, “Targeting SHP2 with an Active Site Inhibitor Blocks Signaling and Breast Cancer Cell Phenotypes” (ACS Bio & Med Chem Au, 2023).

Tests used:
PTP1B = molecular target: T1, PTP1B (Homo sapiens, UniProt P18031); assay: PTPase assay, GST-fusion PTP domain of PTP1B, DiFMUP substrate; type: biochemical
T1 construct: The GST fusion PTP domains of SHP1 and PTP1B were expressed and purified in a fashion similar to that of SHP2; GST; made in house
T1 sequence (P18031 3-277 limits assumed): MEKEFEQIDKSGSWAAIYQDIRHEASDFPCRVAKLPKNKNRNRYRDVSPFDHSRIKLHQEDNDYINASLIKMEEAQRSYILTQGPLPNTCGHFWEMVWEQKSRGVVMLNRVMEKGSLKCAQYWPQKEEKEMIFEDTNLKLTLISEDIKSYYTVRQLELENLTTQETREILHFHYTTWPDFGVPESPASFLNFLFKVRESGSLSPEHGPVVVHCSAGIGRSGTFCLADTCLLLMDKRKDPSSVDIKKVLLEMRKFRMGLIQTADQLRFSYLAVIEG
Method: After completion of synthesis, both CNBCA and CNBBA were purified on silica gel, and purity was determined by HPLC. The purified compounds were then tested for their effect on the SHP2 enzyme activity and on the activity of the selected control PTPs (SHP1 and PTP1B) by the phosphotyrosyl phosphatase (PTPase) assay as described previously.[30],[31] First, the GST fusion of the PTP domains of SHP2, SHP1, and PTP1B were produced and purified as reported by us previously.[32] The reactions were performed in a buffer containing 10 mM Tris-HCl (pH 7.2), 100 mM NaCl, 1 mM EDTA, 1 mM dithiothreitol (DTT), and 0.01% Tween-20. […] The complete mixture was incubated at 37 °C for 20 min, and fluorescence intensity was measured by the Synergy 4 plate reader at the excitation and emission wavelengths of 360 and 460 nm, respectively. The half inhibitory concentration (IC50) value of each compound was calculated and plotted using Graphpad Prism software. […]
We used the PTPase assay described previously[30],[31] to evaluate the effect of the newly synthesized compounds on the enzymatic activity of SHP2, SHP1, and PTP1B. […] The mixtures were incubated at 37 °C for 20 min and transferred to 96 well plates, and the fluorescence intensity was measured by a Synergy 4 plate reader at the excitation and emission wavelengths of 360 and 460 nm, respectively. […]

MDA-MB468 cells [1] = assay: Basal pAkt and pERK1/2 signaling by immunoblotting in MDA-MB468 cells; type: cell-based; details: Homo sapiens, MDA-MB-468; MDA-MB468, 48 h treatment, band density pAkt and pERK1/2; read-out: IC50 for SHP2 mediated Akt and ERK1/2 activation
Method: Since SHP2 is an essential mediator of mitogenic and cell survival signaling in breast cancer cells, we determined the effect of CNBCA treatment on activation of ERK1/2 and Akt in the HER2-positive BT474 and in the triple-negative MDA-MB468 cell lines. Cells growing in 2D culture were treated with varying concentrations of CNBCA, ranging from 0.250 to 2.0 μM, for 48 h, and total cell lysates were analyzed by immunoblotting (IB) with antibodies that recognize the activated forms of ERK1/2 (pERK1/2) and Akt (pAkt).

MDA-MB468 cells [2] = assay: Cell growth in 2D culture, MDA-MB468; type: cell-based; details: MDA-MB468, 500 nM, 72 h; vehicle treated cells grew to confluency
Method: Since SHP2 is essential for the growth and transformation of BC cells,[8],[9],[11] we determined the effect of SHP2 inhibition with CNBCA in 2D and 3D culture systems. For the effect on cell growth, BC cells (BT474 and MDA-MB468) were seeded in 2D culture and treated with a single concentration of CNBCA (500 nM), the concentration that provided a 50% inhibition of SHP2 mediated signaling in BT474 cells. Images were collected at the start and every 24 h for a total of 72 h (3 days). […] For effect on anchorage independent growth, approximately 10^6 cells were seeded in soft agar as described previously,[24] and treated with CNBCA at 500 nM concentration for 10 days with refeeding and adjustment of compound concentration. […] Finally, the effect of CNBCA on cancer stem cell properties was determined by the suspension assay, in which only cells with stem-like properties only can grow and form mammospheres.[7],[24],[36] Approximately 10^6 cells were seeded in nonadherent 6 cm plates and treated with CNBCA (500 nM) for 10 days with complementation of media and drug concentration.

IC50 (PTP1B; PTP domain, 1 nM enzyme, 10 μM DiFMUP): 25 µM
selectivity ratio PTP1B versus SHP2 (PTP1B; SHP2 IC50 as reference): 28.73 fold
IC50 (MDA-MB468 cells [1]): ~1 µM
Compound: CCCCCCCCCOc1ccc(-c2ccc(C(=O)O)cc2)cc1CCCC(=O)O [CNBCA, 3′-(3-carboxypropyl)-4′-(nonyloxy)-[1,1′-biphenyl]-4-carboxylic acid]
cell growth in 2D culture (MDA-MB468 cells [2]): half-confluent
